Data from patent publication US7943804B2, “Lutein extraction from ozone-treated plant sources” (Board of Supervisors of Louisiana State University and …, priority 2006, dated 2011).
Where two headings read alike, the source gives them in different places.

Key:
[1] = system: AFB1 mutagenicity, Salmonella strains; conditions: cited from earlier work
[2] = system: Salmonella typhimurium tester strain TA100; conditions: for Number of Revertants (without use of AFB1): TA100
[3] = system: AFB1 mutagenicity in Salmonella typhimurium tester strain TA100; assay type: cell-based; conditions: AFB1 500 ng/plate
[4] = system: Salmonella typhimurium tester strain TA100; assay type: cell-based

## CC1=C[C@H](O)CC(C)(C)[C@H]1/C=C/C(C)=C/C=C/C(C)=C/C=C/C=C(C)/C=C/C=C(C)/C=C/C1=C(C)C[C@@H](O)CC1(C)C [Lutein, β, e-carotene-3,3′-diol]
[1]
  mutagenic effect of aflatoxin relative to control: 2%
[1]; test based on Salmonella strains
  inhibition of AFB1 mutagenicity, result in words: inhibit the mutagenicity of AFB1
[2]; TA100, result in words
  mutagenic effect (increase of revertants over the natural rate): neither purified lutein nor corn lutein extracts increase the number of revertants over the natural rate
[2]; lutein standard 0.02 μg/plate
  Number of Revertants (without use of AFB1): 247 ± 15
[2]; lutein standard 0.2 μg/plate, listed as Lutein Standard
  Number of Revertants (without use of AFB1): 258 ± 10
[2]; lutein standard 0.2 μg/plate, listed as lutein standard
  Number of Revertants (without use of AFB1): 254
[2]; lutein standard 0.8 μg/plate, listed as Lutein Standard
  Number of Revertants (without use of AFB1): 261 ± 13
[2]; lutein standard 0.8 μg/plate, listed as lutein standard
  Number of Revertants (without use of AFB1): 261
[2]; lutein standard 2 μg/plate
  Number of Revertants (without use of AFB1): 243 ± 8
[2]; lutein standard 10 μg/plate, listed as Lutein Standard
  Number of Revertants (without use of AFB1): 264 ± 12
[2]; lutein standard 10 μg/plate, listed as lutein standard
  Number of Revertants (without use of AFB1): 264
[3]; TA100
  inhibition of AFB1 mutagenicity, result in words: inhibited AFB1 (500 ng/plate) mutagenicity in a dose-response manner
[3]; lutein standard 0.02 μg/plate
  Number of Revertants: 876 ± 34
  Percent Inhibition: 5.3%
[3]; lutein standard 0.2 μg/plate
  Number of Revertants: 813 ± 45
  Percent Inhibition: 12.1%
[3]; lutein standard 0.8 μg/plate
  Number of Revertants: 741 ± 25
  Percent Inhibition: 19.9%
[3]; lutein standard 2 μg/plate
  Number of Revertants: 679 ± 39
  Percent Inhibition: 26.6%
[3]; lutein standard 10 μg/plate
  Number of Revertants: 568 ± 50
  Percent Inhibition: 38.6%

## CC1=CCCC(C)(C)[C@H]1/C=C/C(C)=C/C=C/C(C)=C/C=C/C=C(C)/C=C/C=C(C)/C=C/C1=C(C)CCCC1(C)C [α-carotene]
[1]
  mutagenic effect of aflatoxin relative to control: 2%

## aflatoxin B1 [AFB1]
[4]
  mutagenic potency: about 925 revertants/plate
